Source: patent publication US6770020B2 (priority 2001, dated 2004)
“Also recorded” adds a separate entry of the source.

Legend:
[1] = test system: human glioblastoma cells (TB 10); assay: ICP-MS Gd release/retention after Gd-DTPA wash-out; conditions: 10 mg/ml 72 hours
[2] = cited from earlier work
LD50 in rats = format: in vivo; conditions: 70 kg human, assuming a similar LD50 in man
[3] = test system: human glioblastoma cells (TB 10); assay: Gd-DTPA toxicity by cell counting; format: cell-based
Procedure: Two effects that may affect the Gd-DTPA uptake kinetics were examined: compound toxicity and cell density. Three independent series of cell cultures were grown at different densities and exposed for up to 120 hours. Cell counting performed at the end of the incubation time either in control or in Gd-treated cultures gave the same cell number.
In addition, some of the cells exposed to Gd-DTPA for 120 hours were re-plated.

[4] = test system: human glioblastoma cells (TB 10); assay: Cell survival after thermal neutron irradiation of Gd-DTPA-exposed cultures; format: cell-based; conditions: for cell death after neutron irradiation: FIG. 5
Procedure: 5) For neutron bombardment, two series of cell cultures (each one in duplicate) from different passages were plated in plastic “NUNC”-brand flasks (Nalge Nunc International, Rochester, N.Y.) (NUNCLON, 25 cm^2culture area) at a density of 1×10^4 cells/cm^2 and exposed to no Gd-DTPA, 1 mg/ml, 5 mg/ml, or 10 mg/ml GdDTPA, for 72 hours, beginning 24 hours after plating. At the end of the exposure period, the growth media were removed and the flasks filled with Puck's modified saline, in which the cells remained for two hours before neutron bombardment. The cells were then irradiated for one hour under a thermal neutron flux of 3×10^8 n/cm^2s (nominal power 5 kW), at the ENEA's (Ente per le Nuove Tecnologie, L'Energia e L'Ambiente, Rome, Italy) TAPIRO fast Reactor. The fast neutron flux at the center of the irradiation chamber (20 cm^3 cube) was negligible, while the γ average dose was 3.2 Gy/h.^(20) Two hours later, the cells were detached from the plates, and cell survival was measured by cell counting and by the colorimetric MTT assay. The standard deviation of cell counting results on the four culture series was within 10%.
To verify if the 140 μg/ml of Gd retained by glioblastoma cells in the two- to four-hour washout time was still available as an efficient tumoricidal agent for NCT, the cultures were irradiated for one hour with thermal neutrons.
The data of FIG. 5 were obtained by direct living cell count and very similar results were obtained by the use of an MTT assay. As presented in FIG. 5, the control cultures (no Gd) were also affected by neutron irradiation, causing 20% of the cells to die. […] The serum-free environment insures that the DNA-repair cellular mechanism is slowed down, resulting (in principle) in decreased survival of the cells in which the Gd neutron capture reaction induced DNA damage. The 20% cell killing observed in cells not exposed to Gd provides an evaluation of the extent of this phenomenon.

[5] = test system: human glioblastoma cells (TB 10); assay: MEPHISTO x-ray spectromicroscopy, Gd in nucleus vs. cytoplasm; format: cell-based; conditions: 10 mg/ml
Procedure: 1) For spectromicroscopy experiments, two series of cell cultures from different passages were prepared, in which 5×10^4 cells/cm^2 were plated in 35 mm plastic Petri dishes, each containing 4 to 5 gold-plated stainless steel substrates (5 mm diameter). The Gd exposure concentration was 10 mg/ml and the exposure times were 0 to 72 hours. At the end of the exposure periods, all dishes were carefully washed three times with phosphate buffered saline (PBS) to remove all unbound Gd-DTPA, fixed in 4% paraformaldheyde in PBS for 20 minutes, and then washed in Milii Q water. The samples were then air-dried at room temperature and etched by exposure to UV light from a low-pressure mercury lamp in the presence of ozone. UV/O3 etching selectively removes carbon and nitrogen from the cells without architectural distortion, thereby preserving the micro localization of all other elements.^(18,19) In the present study, etching was employed to reveal the local (i.e., nuclear) concentration of Gd which would otherwise not be detectable with x-ray absorption spectroscopy. The cell cultures were etched for 116 hours, at a distance of 5 mm from the UV lamp.
Microchemical analysis of the etched cell cultures was performed with the custom-built MEPHISTO (Microscope á Emission de PHotoélectrons par Illumination Synchrotronique de Type Onduleur) X-ray photoelectron emission microscope (X-PEEM), which uses an electron optics system (SpectroMicroTech, Orlando, Fla., USA) to form a magnified image of the photoelectrons emitted by a specimen under soft x-ray illumination. The image magnification is continuously variable up to 8000x, and the optimum lateral resolution is 20 nm^(15). The image pixel intensity (corresponding to total photoelectron yield, per unit area, per unit time) is recorded as a function of photon energy. […] The position and line-shape of spectral features provide element identification and chemical state information. Spectra can be acquired simultaneously from regions selected on the real time image of the sample surface, and the probed depth is on the order of 100 Å. For this work, the MEPHISTO X-PEEM was mounted on the HERMON beamline of the University of Wisconsin-Madison Synchrotron Radiation Center (Stoughton, Wis.).
MEPHISTO micrographs acquired at a specific photon energy were processed in Adobe Photoshop 5.0 software for Macintosh to enhance the contrast and add a scale bar. […]
A comparison of ICP-MS and MEPHISTO data, determines the calibration of the MEPHISTO analysis, and therefore quantitative information on the Gd concentration at the microscopic level. […] These factors were derived from the matching of MEPHISTO data from whole cells to the ICP-MS cell-bulk data, so that they quantitatively overlap. […]

[6] = higher concentrations and prolonged exposure; cited from earlier work

O=C([O-])CN(CCN(CC(=O)[O-])CC(=O)O)CCN(CC(=O)[O-])CC(=O)O.[Gd+3] [Gd-DTPA, gadolinium diethylene triamine pentaacetic acid]
immediate loss of Gd from the cell bodies after wash-out ([1]; FIG. 4): about 80% | intracellular retained Gd concentration ([1]; then two to four hours in physiological solution): 140 µg/mL | dose eliminated renally ([2]; 6 hours post-injection in man, average): about 83% | dose found in the urine ([2]; 5 days post-injection in man): approximately 91% | dose dependence of pharmacokinetics ([2]; humans): independent of the dose | half life in the blood ([2]; in vivo): around 30 minutes | amount injected for a 50% chance of killing (LD50 in rats): more than 850 g | growth and morphology after re-plating ([3]; cells exposed 120 hours, re-plated, after one week): grew normally | cytotoxic or cytostatic effect (cell counting vs. unexposed controls) ([3]; different concentrations of Gd-DTPA, 72 hours): not cytotoxic or cytostatic | cytotoxic or cytostatic effect (cell counting vs. control) ([3]; exposed for up to 120 hours): did not show any cytotoxic or cytostatic effect; also recorded: no toxic effects; also recorded: no effect on cell survival | cell death after Gd exposure followed by thermal neutrons ([4]; 140 μg/ml Gd retained after two hours in physiological solution, 1 hour thermal neutrons): 70% | cell inactivation by Gd plus thermal neutrons vs. thermal neutrons alone ([4]; 70% vs. 20% killing): 3.5 times | cell death after neutron irradiation ([4]; exposure 1 mg/ml Gd-DTPA 72 hours): not sufficient to induce consistent cell death | cell death after neutron irradiation ([4]; exposure 10 and 5 mg/ml Gd-DTPA 72 hours): evident and reproducible cell death | Ratio: Gd nucleus/Gd cytoplasm ([5]; exposure time 6 hrs): 1.6 | Ratio: Gd nucleus/Gd cytoplasm ([5]; exposure time 24 hrs): 2.1 | Ratio: Gd nucleus/Gd cytoplasm ([5]; exposure time 48 hrs): 1.0 | Ratio: Gd nucleus/Gd cytoplasm ([5]; exposure time 72 hrs): 1.3 | intravascular hemolysis [6]: weak, reversible intravascular hemolysis
